For one test, the system named is iENs. The test is described as follows: sEPSC recording from iENs. The class given is cell-based, human. The settings on record: CNQX 20 μM; 21 dpt. The method, then:
Whole cell patch clamp recordings were performed on iGNs and iENs with voltage or current clamp mode. Recording pipettes with resistances of 4-6 MΩ were filled with an internal solution containing (in mM): 120 K-gluconate, 9 KCl, 10 KOH, 3.48 MgCl2, 4 NaCl, 10 HEPES, 4 Na2ATP, 0.4 Na3GTP, 17.5 Sucrose, 0.5 EGTA with an osmolarity of 290 mOsm and pH 7.3. Neurons were bathed in the extracellular solution containing (in mM): 124 NaCl, 3 KCl, 1.3 NaH2PO4, 10 dextrose, 2 MgCl2, 2 CaCl2, 10 HEPES at pH 7.4. […] Neurons were held at −70 mV except otherwise indicated or at required currents using an Axon MultiClamp 700B amplifier (Axon Instruments). Signal was sampled at 40 kHz and filtered at 2 kHz (Digidata 1440A, Molecular Devices). Recordings with serial resistance higher than 20 MO or leaking current more than 200 pA were not analyzed. Data were analyzed offline using the ClampFit (Molecular Devices) or MiniAnalysis (Synaptosoft). Voltage clamp was used for recording I/V curve of Na/K current using a protocol of increasing holding potential 10 mV for each step from −80 mV. […] The reversal potential for ions was −49 mV in our recording system, calculated using the simplified Nernst equation: E(Cl^−)=−59*log(extracellular[Cl^−]/intracellular[Cl^−]),(T=25° C.). Spontaneous action potentials were recorded at I=0 mode. […]

The subject of test [1] is transplanted human iGNs in acute cortical slices. Nature of the test: Slice recording of sEPSCs from human iGNs transplanted into mouse cortex. In kind it is cell-based. The following applies: CNQX 50 μM; -70 mV voltage clamp. As for the experimental part:
P1 NSG pups were anesthetized on ice for 1-2 minutes before being secured with tape onto a prechilled ice block. Human iGNs were priorly labeled with RFP as described, and trypsinized to single cells at 8 dpt. Concentrated cell suspensions (˜2.5-5×10^4 cells/μl) were front loaded into a microliter syringe (26s gauge, Hamilton Company) and injected (200 nl, 250 nl/min) bilaterally to a depth of 0.2 mm near the centre of the anterior/posterior axis and 1 mm away from the midline.
After isofluorane anesthesia, brains were quickly cut out and 300-μm coronal slices were sectioned using vibrating microtome (VF-200 Microtome, Precisionary Instruments). Slices were incubated at 30° C. in artificial cerebrospinal fluid (ACSF) containing (in mM): 125 NaCl, 2.5 KCl, 1.25 NaH2PO4, 2 CaCl2, 1 MgCl2, 26 NaHCO3, and 10 glucose, saturated with 95% 02 and 5% CO2 at 30-32° C. for recovery for at least 1 hour. During recording, slices were kept in a recording chamber with continuous perfusion of ACSF. CNQX (50 μM, Tocris) was used to block sEPSC. Patch recordings were done by using IR-DIC visualization techniques with an Olympus BX51WI upright microscope with a ×60 water-immersion lens. Patch clamp recording method was same with that of recording in cultured cell.

The next test has as its system mixed iENs/iGNs. Nature of the test: Spontaneous PSC recording from iGNs in mixed iENs/iGNs co-culture. In kind it is cell-based, human. The following applies: 56 dpt, -70 mV; after bicuculline. As for the experimental part:
(§1) Whole cell patch clamp recordings were performed on iGNs and iENs with voltage or current clamp mode. Recording pipettes with resistances of 4-6 MΩ were filled with an internal solution containing (in mM): 120 K-gluconate, 9 KCl, 10 KOH, 3.48 MgCl2, 4 NaCl, 10 HEPES, 4 Na2ATP, 0.4 Na3GTP, 17.5 Sucrose, 0.5 EGTA with an osmolarity of 290 mOsm and pH 7.3. Neurons were bathed in the extracellular solution containing (in mM): 124 NaCl, 3 KCl, 1.3 NaH2PO4, 10 dextrose, 2 MgCl2, 2 CaCl2, 10 HEPES at pH 7.4. Bicuculline (20 μM, Tocris) and CNQX (50 μM, Tocris) were used to block inhibitory or excitatory synaptic responses, respectively. Neurons were held at −70 mV except otherwise indicated or at required currents using an Axon MultiClamp 700B amplifier (Axon Instruments). Signal was sampled at 40 kHz and filtered at 2 kHz (Digidata 1440A, Molecular Devices). Recordings with serial resistance higher than 20 MO or leaking current more than 200 pA were not analyzed. Data were analyzed offline using the ClampFit (Molecular Devices) or MiniAnalysis (Synaptosoft). […] The reversal potential for ions was −49 mV in our recording system, calculated using the simplified Nernst equation: E(Cl^−)=−59*log(extracellular[Cl^−]/intracellular[Cl^−]),(T=25° C.). Spontaneous action potentials were recorded at I=0 mode. […]

A further test deals with iGNs. Nature of the test: Whole cell patch clamp of iGNs: GABA-evoked responses and spontaneous IPSCs. The following applies: 1 mM, 100 ms. In kind it is cell-based, human. As for the experimental part:
as §1, with “Neurons were held at −70 mV except otherwise indicated or at required currents using an Axon MultiClamp 700B amplifier (Axon Instruments). Signal was sampled at 40 kHz and filtered at 2 kHz (Digidata 1440A, Molecular Devices).” left out
For chemical GABA evoked IPSC recording, tip of glass pipettes filled with freshly made GABA (1 mM, Sigma) was put approximately 100 μm away from soma along dendrites of recorded neurons. […]
In general terms: Patch clamp records ionic current or voltage across a cell membrane.

For a further test, the system named is iGN expressing ChETA. The class given is cell-based, human.

Entries after “also recorded” stand apart in the source; their conditions may differ.

As to `N#Cc1cc2[nH]c(=O)c(=O)[nH]c2cc1[N+](=O)[O-]` [CNQX], in the test on iENs, the “sEPSCs in iENs, block” value is “completely abolished sEPSCs”. For the same compound, in test [1], the “spontaneous EPSCs (sEPSCs) in transplanted iGNs, block” value is on record as “abolished; also recorded: blocked”. Moreover, the “sEPSCs (fast-rise, fast-decay PSCs) in iGNs of mixed culture, block” value in the test with mixed iENs/iGNs was “completely abolished the remaining fast-rise, fast-decay PSCs; also recorded: blocked”.

`NCCCC(=O)O` [GABA, gamma-aminobutyric acid]: the “induction of IPSCs by exogenous application” value with iGNs is “triggered inhibitory postsynaptic currents”.

On to TTX, for which the “light-evoked inward currents, block” value with iGN expressing ChETA is listed as “could not block these light-evoked currents”.

The record behind these values is patent US20180072988A1, “GENERATION OF FUNCTIONAL CELLS FROM STEM CELLS” (priority 2015, published 2018).
